Assay results as given in patent US6413773B1, “Phosphatidylinositol 3-kinase inhibitors as stimulators of endocrine differentiation” (The Regents of the University of California, priority 1998, dated 2002).

Tests used:
[1] = tested on: human fetal ICCs; assay: [3H]thymidine incorporation into DNA; format: cell-based; conditions: ICCs 5 d with inhibitor, FIG. 4A
Protocol: After incubation with various factors in culture, the ICCs were harvested, and measurements of insulin content, insulin release in response to glucose plus theophylline, and [^3H]thymidine incorporation into DNA were performed as described previously (Otonkoski et al. (1993) J. Clin. Invest. 92:1459-1466).

[2] = tested on: islet hormone gene expression in human fetal ICCs; assay: Multiprobe ribonuclease protection assay of islet hormone mRNA; format: cell-based; conditions: ICCs 5 d, 100 nM wortmannin or 10 μM Ly294002, FIG. 1
Description: The use of human fetal tissue for these studies was reviewed and approved by the Institutional Review Board at our university. Human fetal pancreases at 18-24 gestational wk were obtained with appropriate permissions and patient consent through nonprofit organ procurement programs (Advanced Bioscience Resources, Oakland, Calif.; Anatomic Gift Foundation, Laurel, Md.). Experiments were started by the enzymatic digestion with collagenase P (Boehringer Mannheim Corp., Indianapolis, Ind.) of the human fetal pancreases followed by tissue culture for 5 d, which led to the formation in vitro of ICCs, as previously described in detail (Otonkoski et al. (1993) J. Clin. Invest. 92:1459-1466). […] Transcriptional analyses on total RNA ([…]) were performed using a multiprobe ribonuclease protection assay, as previously described (Otonkoski et al. (1993) J. Clin. Invest. 92:1459-1466). The housekeeping gene cyclophilin was used as an internal control, and yeast tRNA (10 μM) was included as a negative control. Probes used were of human origin and were described previously (Otonkoski et al. (1993) J. Clin. Invest. 92:1459-1466). Target RNAs were quantitated in autoradiographs by scanning densitometry (LKB UltroScan XL Laser) and integrated using Gel Scan XL software (Pharmacia LKB Biotechnology, Inc., Piscataway, N.J.). The probe-specific mRNA signals were normalized to the cyclophilin signal in each sample to account for differences in sample loading between lanes.

[3] = tested on: human fetal ICCs; assay: Insulin content and insulin release of ICCs; format: cell-based
Description: The use of human fetal tissue for these studies was reviewed and approved by the Institutional Review Board at our university. Human fetal pancreases at 18-24 gestational wk were obtained with appropriate permissions and patient consent through nonprofit organ procurement programs (Advanced Bioscience Resources, Oakland, Calif.; Anatomic Gift Foundation, Laurel, Md.). Experiments were started by the enzymatic digestion with collagenase P (Boehringer Mannheim Corp., Indianapolis, Ind.) of the human fetal pancreases followed by tissue culture for 5 d, which led to the formation in vitro of ICCs, as previously described in detail (Otonkoski et al. (1993) J. Clin. Invest. 92:1459-1466). […] After incubation with various factors in culture, the ICCs were harvested, and measurements of insulin content, insulin release in response to glucose plus theophylline, and [^3H]thymidine incorporation into DNA were performed as described previously (Otonkoski et al. (1993) J. Clin. Invest. 92:1459-1466).

[4] = tested on: PIP3; assay: Determination of total cellular PIP3 in [32P]orthophosphate-labeled ICCs; format: cell-based, human
Protocol: The ICCs, which were pretreated for 5 d with PI3K inhibitors, NIC, HGF/SF, or control buffer, were subsequently harvested and suspended at a concentration of 2 3 10 5 cells/ml in buffer A (30 mM Hepes, pH 7.2, 110 mM NaCl, 10 mM KCl, 1 mM MgCl2, 10 mM glucose), and 1 mCi/ml [^32P]orthophosphate ([…]; DuPont/NEN) was added. The cells were incubated at 37° C. for 2 h and then washed 3× with buffer A. Depending on the type of experiment, the labeled islet cells were either directly lysed by addition of 3 ml chloroform/methanol (1:2, vol/vol), followed by 4 ml chloroform/2.4 M HCl (1: 1, vol/vol) (to measure basal levels of PIP3 ), or labeled cells were first stimulated with 25 ng/ml HGF/SF for the indicated times, and subsequently the reaction was stopped as above (to measure the inducible levels of PIP3 ). Phospholipids were extracted and analyzed by thinlayer chromatography, and the total cellular PIP3 was quantified, as we described previously in detail (Ptasznik et al. (1996) J. Biol. Chem. 271 :25204-25207).

[5] = tested on: PI3K; assay: PI3K assay on immunoprecipitates from treated fetal ICCs; format: cell-based, human; conditions: for control PI3K activity eliminated, p85 immunoprecipitates: 100 nM wortmannin or 10 μM Ly294002, 5 d
Description: The use of human fetal tissue for these studies was reviewed and approved by the Institutional Review Board at our university. Human fetal pancreases at 18-24 gestational wk were obtained with appropriate permissions and patient consent through nonprofit organ procurement programs (Advanced Bioscience Resources, Oakland, Calif.; Anatomic Gift Foundation, Laurel, Md.). Experiments were started by the enzymatic digestion with collagenase P (Boehringer Mannheim Corp., Indianapolis, Ind.) of the human fetal pancreases followed by tissue culture for 5 d, which led to the formation in vitro of ICCs, as previously described in detail (Otonkoski et al. (1993) J. Clin. Invest. 92:1459-1466).
PI3K inhibitors, NIC, or HGF/SF were added to the culture medium from the very beginning. Medium plus factor was changed every day for 5 d. For direct comparison, portions of the same pancreases were grown, treated with factors, and used for transcriptional analyses, insulin content and secretion, PI3K activities, and DNA synthesis.
(§1) Aliquots of cell lysates normalized for protein content were incubated for 3 h with antiPI3K antibodies directed against the 85kD regulatory subunit or with antiphosphotyrosine antibodies (Upstate Biotechnology, Inc., Lake Placid, N.Y.). The immune complexes were absorbed onto protein A-Sepharose and washed as described (Ptasznik et al. (1995) J. Biol. Chem. 270:19969-19973). PI3K assays were performed directly on beads. Briefly, the reaction was carried out for 10 min in a buffer containing 40 mM Hepes, pH 7.2, 6 mM MgCl2, 1 mM EDTA, […] (Avanti Polar Lipids, Alabaster, Ala.), […], and 10 mCi [γ^32P]ATP (6,000 Ci/mmol; DuPont/NEN, Wilmington, Del.). Adenosine (0.2 mM) was added to the reaction mixture to inhibit residual PI 4 kinase activity. After the incubation, the reaction was stopped with methanol plus 2.4 N HCl (1:1, vol/vol), and lipids were extracted, analyzed by thin-layer chromatography, and quantified as described previously (Ptasznik et al. (1995) J. Biol. Chem. 270:19969-19973). In some experiments, the direct binding of PI3K to p190Met after HGF/SF stimulation of islet cells was determined, as previously described in detail (Graziani, et al. (1991) J. Biol. Chem. 266:22087-22090).

[6] = tested on: human fetal ICCs; assay: Triple immunofluorescence, confocal microscopy and morphometric analysis; format: cell-based
Protocol: ICCs cultured for 5 d in either control medium or medium containing 10 μM Ly 294002 were paraffin embedded, and […] sections were stained for hormone immunoreactivity. To simultaneously identify cells producing insulin, glucagon, somatostatin, and pancreatic polypeptide (pp), we followed a modification of our previous protocol for multiple labeling (Otonkoski et al. (1996) J. Clin. Invest. 79:351-358). Briefly, sections were incubated for 1 h at room temperature with a mixture of primary antibodies: IgG fraction of a sheep anti-human insulin antiserum (The Binding Site, Birmingham, England) ([…]), mouse monoclonal anti-human glucagon (Sigma Chemical Co.) (1 mg/ml), rabbit anti-human somatostatin antiserum (Dako Corporation, Carpinteria, Calif.) (used at 1:100 dilution), and rabbit anti-human pp antiserum (Chemicon International, Inc., Temecula, Calif.) (used at 1:100 dilution). In separate sections, a mixture of normal sheep, rabbit, and mouse IgGs was used as control reference for specificity of primary antibodies. After washings in PBSDS (5 mM glycine, 0.2% donkey serum, 0.1% BSA), sections were incubated for 1 h at room temperature with a cocktail of F(ab′)2 fractions from secondary antibodies: lissamine-rhodamine-conjugated affinity-purified donkey anti-sheep IgGs ([…]); FITC-conjugated affinity-purified donkey anti-rabbit IgGs ([…]); and indodicarbocyanine-conjugated affinity-purified donkey anti-mouse IgGs ([…]). All F(ab′)2 were preadsorbed on appropriate multiple species to eliminate the possibility of crossreactivity in multiple labeling protocols (Jackson ImmunoResearch Labs, Inc., West Grove, Pa.). The sections were processed as previously described (Otonkoski et al. (1996) J. Clin. Invest. 79:351-358) and viewed on a laser scanning confocal microscope (model MRC1024; BioRad Laboratories, Hercules, Calif.).
Sections were prepared from control and Ly294002 treated ICCs from three independent experiments. […] All images collected (one image per section) were then analyzed for total surface area and insulin, glucagon, somatostatin, and positive cell surface area by using measurement tools in the software NIH Image 1.60 (National Institutes of Health, Bethesda, Md.). Data were analyzed in Stat View 4.01 (Abacus Concepts, Inc., Berkeley, Calif.) for calculation of mean, standard deviation, and parametric statistic (t test).

[7] = tested on: fetal pancreatic cells growing as islet-like cell clusters; assay: Cytotoxicity and apoptosis in culture
[8] = tissue culture medium; cited from earlier work
[9] = tested on: islet hormone gene expression in human fetal ICCs; conditions: earlier publications; cited from earlier work
[10] = tested on: p85 protein; assay: Western blotting of p85 protein; format: cell-based, human; conditions: during NIC treatment
[11] = tested on: PI3K; assay: Direct effect on PI3K activity in vitro in p85 immunoprecipitates; format: biochemical, human; conditions: various concentrations of NIC
Protocol: as §1

[12] = tested on: purified fetal islets; assay: Endocrine function in purified fetal islets; format: cell-based, human
Protocol: Effects of PI3K inhibitors on endocrine function were tested not only in ICCs, but also in purified islets. Undifferentiated epithelial cells account for z75-80% of the total cell mass in ICCs. By contrast, purified fetal islets contain about 10 fold fewer undifferentiated epithelial cells (Beattie et al. (1996) Diabetes. 46:244-248). Purification of human fetal pancreatic islets was performed as recently described (Beattie et al. (1996) Diabetes. 46:244-248). Fetal islets, identified as homogeneous differentiated clusters of dithizonepositive cells, were incubated with factors as above.

Molecule: O=c1cc(N2CCOCC2)oc2c(-c3ccccc3)cccc12 [Ly294002, 2-(4-Morpholinyl)-8-phenyl-4 H-1-benzopyran-4-one]
- [3H]thymidine incorporation into DNA [1]: significantly decreased
- transcriptional level of glucagon [2]: increased
- transcriptional level of insulin [2]: increased
- transcriptional level of somatostatin [2]: increased
- insulin content per cellular DNA versus untreated control ([3]; ICCs cultured 5 d with inhibitor, FIG. 2A): significantly increased
- insulin secretion per cellular DNA versus untreated control ([3]; ICCs cultured 5 d with inhibitor, glucose plus theophylline, FIG. 2B): significantly increased
- rise in PIP3 formation stimulated by growth factors ([4]; 100 nM wortmannin or 10 μM Ly294002, intact labeled islet cells): almost completely inhibited
- control PI3K activity eliminated, p85 immunoprecipitates ([5]; FIG. 7): 90%
- increase in the total percentage of endocrine-positive cells versus control ICCs ([6]; 10 μM Ly294002, 5 d): 4.4 fold
- frequency of cells coexpressing multiple hormones ([6]; 10 μM Ly294002, 5 d, FIG. 3): increased
- total endocrine cell surface area ([6]; 10 μM Ly294002, 5 d, FIG. 3): significantly increased
- endocrine surface area for all hormones (insulin; somatostatin and pp; glucagon), percent of total ICC surface area ([6]; 10 μM Ly294002, 5 d, FIG. 3, n=3): significantly increased
- number of hormone producing cells growing in ICCs ([6]; blockade of PI3K activity in culture): significantly increased
- cytotoxicity (general statement) [7]: no significant cytotoxicity
- stability in culture medium [8]: very stable

Molecule: COC[C@H]1OC(=O)c2coc3c2[C@@]1(C)C1=C(C3=O)[C@@H]2CCC(=O)[C@@]2(C)C[C@H]1OC(C)=O [wortmannin]
- control PI3K activity eliminated, p85 immunoprecipitates ([5]; FIG. 7): 90%
- cytotoxicity and apoptosis ([7]; continuous treatment 5 d, 100 nM wortmannin, 10 μM Ly294002): does not cause notable cytotoxity nor induce apoptosis
- stability in culture medium [8]: much less stable

Molecule: hepatocyte growth factor/scatter factor [HGF/SF]
- increase in levels of PIP3 ([4]; ICCs growing continuously (5 d) with 25 ng/ml HGF/SF, FIG. 6): threefold
- cellular PI3K activity after acute stimulation ([5]; 25 ng/ml HGF/SF, ICCs starved 24 h, antiphosphotyrosine immunoprecipitates, FIG. 5): robustly activated
- insulin and glucagon gene transcription and insulin protein biosynthesis [9]: marked down-regulation

Molecule: CO[C@@]12[C@H](COC(N)=O)C3=C(C(=O)C(C)=C(N)C3=O)N1C[C@@H]1N[C@@H]12 [mitomycin C]
- insulin protein expression ([3]; 2 mg/ml mitomycin C for 5 d, FIG. 4B): does not affect
- basal PI3K activity in fetal islet cells significantly affected ([5]; mitomycin C-treated cells): neither

Molecule: NC(=O)c1cccnc1 [NIC, nicotinamide]
- basal level of PIP3 versus control cells ([4]; 10 mM NIC, 5 d, FIG. 6): significantly lower
- amount of PI3K activity in p85 immunoprecipitates, lower than untreated cells ([5]; 10 mM NIC, 5 d, FIG. 7): about fivefold
- inducibility of cellular PI3K activity by growth factors and de novo formation of PIP3 ([5]; NIC-treated cells): significantly reduced
- insulin and glucagon gene transcription and insulin protein biosynthesis [9]: an increase
- actual level of p85 protein [10]: no change
- direct inhibitory effect on PI3K activity in vitro [11]: not a direct inhibitor
- effect on endocrine function in purified fetal islets [12]: no effect
